Reference: PubChem BioAssay (NCI)
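Grown in 96-well plates, cells were treated for 48 hours with each compound at five concentrations. Insufficient inhibition: endpoint recorded as highest concentration tested. The concentration for full growth arrest is given as TGI.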

Tests used:
Experiment in all cases: NCI-60 cell line screen, 48 h
HT29 colon = test system: HT29 colon
SF-539 CNS = test system: SF-539 CNS
HS 578T breast = test system: HS 578T breast
PC-3 prostate = test system: PC-3 prostate
SW-620 colon = test system: SW-620 colon
HOP-62 NSCLC = test system: HOP-62 NSCLC
UACC-257 melanoma = test system: UACC-257 melanoma
T-47D breast = test system: T-47D breast
HCT-116 colon = test system: HCT-116 colon
OVCAR-3 ovarian = test system: OVCAR-3 ovarian
HCC-2998 colon = test system: HCC-2998 colon
786-0 renal = test system: 786-0 renal
UO-31 renal = test system: UO-31 renal

Structure (SMILES)	TGI (HT29 colon)	TGI (SF-539 CNS)	TGI (HS 578T breast)	TGI (PC-3 prostate)	TGI (SW-620 colon)	TGI (HOP-62 NSCLC)	TGI (UACC-257 melanoma)	TGI (T-47D breast)	TGI (HCT-116 colon)	TGI (OVCAR-3 ovarian)	TGI (HCC-2998 colon)	TGI (786-0 renal)	TGI (UO-31 renal)
CCOc1nc2sc3c(c2c(=O)n1CCSSCCn1c(OCC)nc2sc4c(c2c1=O)CCCC4)CCCC3	> 100 µM	> 100 µM	> 100 µM	> 100 µM	> 100 µM	> 100 µM	> 100 µM	> 100 µM	> 100 µM	> 100 µM	> 100 µM	> 100 µM	> 100 µM
COC1C(=O)N(SC)C1c1ccccc1Cl (configuration not stated)	40.7 µM	35.2 µM	> 100 µM	> 100 µM	45.6 µM	> 100 µM	> 100 µM	58.5 µM	24.4 µM	34.3 µM	28.8 µM	32.9 µM	33.3 µM
COc1cc(/C=N/n2c(C)n[nH]c2=O)cc(OC)c1OC	> 100 µM	> 100 µM	49.7 µM	> 100 µM	> 100 µM	> 100 µM	> 100 µM	> 100 µM	> 100 µM	> 100 µM	> 100 µM	> 100 µM	> 100 µM
CCOC(=O)c1csc(-c2cn(C)c3c2C(=O)C(OC)=CC3=O)n1	> 100 µM	> 82.9 µM	> 58.8 µM	> 100 µM	> 100 µM	74 µM	> 78.9 µM	> 100 µM	> 100 µM	> 31.9 µM	> 100 µM	> 100 µM	> 100 µM
Cc1ccc(S(=O)(=O)NNC(=O)Nc2ccc([N+](=O)[O-])cc2)cc1	> 100 µM	> 100 µM	> 100 µM	> 100 µM	> 100 µM	95.4 µM	> 100 µM	28.9 µM	> 100 µM	78.2 µM	> 100 µM	64.6 µM	> 100 µM
COc1cc(C(=O)OC2CC34CCNC35CC(OC5(OC)C2O)c2cc3c(cc24)OCO3)ccc1O (configuration not stated)	> 100 µM	> 100 µM	> 100 µM	> 100 µM	> 100 µM	> 100 µM	> 100 µM	> 100 µM	> 100 µM	> 100 µM	> 100 µM	> 100 µM	–
Cn1c(N)c(/C=C/C(=O)Oc2ccccc2)c(=O)n(C)c1=O	> 100 µM	> 100 µM	> 100 µM	> 100 µM	> 100 µM	40.9 µM	> 100 µM	> 100 µM	> 100 µM	> 100 µM	> 100 µM	> 100 µM	> 100 µM
Cc1ccc2c(c1)CC1(C2)Cc2ccc(C)cc2C1=O (configuration not stated)	56.2 µM	87.3 µM	> 100 µM	> 100 µM	> 100 µM	97.8 µM	48.1 µM	> 100 µM	71.9 µM	> 100 µM	85 µM	63 µM	> 100 µM
Cc1cc(S(=O)(=O)NC2=NCC(C)(C)CN2)c(S)cc1Cl	46.3 µM	> 100 µM	87.6 µM	> 100 µM	36.8 µM	> 100 µM	> 100 µM	> 100 µM	75.8 µM	> 100 µM	> 100 µM	> 100 µM	99.8 µM
COc1cc(-c2ccccc2)cn2c1nc1ccccc12	35.5 µM	50.4 µM	71.4 µM	50.8 µM	> 100 µM	43.6 µM	47.5 µM	83.6 µM	39.5 µM	40.8 µM	33.7 µM	34.7 µM	32.4 µM
NC(=O)NC(=O)c1cccc(NC(=O)CCl)c1	7.37 µM	1.5 µM	> 21.7 µM	11.6 µM	18.9 µM	4.71 µM	13.6 µM	27.7 µM	1.83 µM	1.44 µM	1.81 µM	3.91 µM	0.452 µM
COc1ccc(C2=NN(C(=O)c3ccc(Cl)cc3)C(O)(c3cc(F)c(Cl)cc3Cl)C2)cc1 (configuration not stated)	> 100 µM	> 100 µM	> 100 µM	> 100 µM	–	> 100 µM	> 100 µM	> 100 µM	> 100 µM	> 100 µM	> 100 µM	> 100 µM	44.4 µM
c1ccc(COC[C@H]2C3OCC([C@H](OCc4ccccc4)[C@H]3OCc3ccccc3)N2Cc2ccccc2)cc1 (some centres not stated)	> 100 µM	> 100 µM	> 100 µM	> 100 µM	> 100 µM	> 100 µM	> 100 µM	> 100 µM	> 100 µM	> 100 µM	> 100 µM	> 100 µM	> 100 µM
CC(=O)OC(C)c1cc2c(s1)C(=O)c1ccsc1C2=O (configuration not stated)	–	0.182 µM	0.422 µM	0.201 µM	0.835 µM	0.281 µM	0.156 µM	1.79 µM	0.769 µM	0.192 µM	1.54 µM	0.978 µM	0.354 µM
COc1cccc(CCn2c(N)c(C#N)c3ccc([N+](=O)[O-])cc3c2=O)c1	> 31.6 µM	–	> 46.4 µM	> 46.4 µM	> 100 µM	> 31.6 µM	> 31.6 µM	> 46.4 µM	> 46.4 µM	> 31.6 µM	> 46.4 µM	> 46.4 µM	> 46.4 µM
COC1OC(Cn2cc([N+](=O)[O-])nc2C)C(O)C(O)C1O (configuration not stated)	> 100 µM	–	> 100 µM	> 100 µM	> 100 µM	> 100 µM	> 100 µM	> 100 µM	> 100 µM	> 100 µM	> 100 µM	> 100 µM	> 100 µM
Cc1nn(C(=O)c2ccc(Cl)cc2)c2c1C(c1ccc(Cl)cc1)SC(N)=N2 (configuration not stated)	> 10 µM	> 10 µM	> 10 µM	> 10 µM	> 10 µM	> 10 µM	> 10 µM	> 10 µM	> 10 µM	> 10 µM	> 10 µM	> 10 µM	–
O=c1[nH]c(=O)n(C2CC(O)C(COP(=O)(OCC(Cl)(Cl)Cl)OCC(Cl)(Cl)Cl)O2)cc1F (configuration not stated)	> 100 µM	–	> 100 µM	> 100 µM	> 100 µM	1.53 µM	> 100 µM	> 100 µM	> 100 µM	> 100 µM	1.62 µM	> 100 µM	> 100 µM
